From patent US20110053953A1, “AZA-Isoindolones and Their Use as Metabotropic Glutamate Receptor Potentiators - 613” (priority 2007, published 2011)
pEC50: −log10 of the molar value.

Target: T1, human mGluR2 (Homo sapiens, UniProt Q14416)
T1 construct: If the GTPgammaS assay was used: nothing is fused
Assay: mGluR2 potentiator functional assays (FLIPR calcium mobilization or [35S]-GTPγS binding; not stated which)
Format: cell-based
Settings: active in assays described herein; allosteric activator (potentiator) activity at mGluR2, assay not specified
Text: The pharmacological properties of the compounds of the invention can be analyzed using standard assays for functional activity. Examples of glutamate receptor assays are well known in the art as described in, for example, Aramori et al., 1992, Neuron, 8:757; Tanabe et al., 1992, Neuron, 8:169; Miller et al., 1995, J. Neuroscience, 15:6103; Balazs, et al., 1997, J. Neurochemistry, 1997, 69:151. The methodology described in these publications is incorporated herein by reference. Conveniently, the compounds of the invention can be studied by means of an assay that measures the mobilization of intracellular calcium, [Ca^2+]i in cells expressing mGluR2.
Fluorometric Imaging Plate Reader (FLIPR) analysis was used to detect allosteric activators of mGluR2 via calcium mobilization. A clonal HEK 293 cell line expressing a chimeric mGluR2/CaR construct comprising the extracellular and transmembrane domains of human mGluR2 and the intracellular domain of the human calcium receptor, fused to the promiscuous chimeric protein G[…]qi5 was used. […]
FLIPR experiments were done using a laser setting of 0.8 W and a 0.4 second CCD camera shutter speed. […] An addition of test compound (0.01 μM to 30 μM in duplicate) was made after 10 seconds of baseline fluorescent readings were recorded on FLIPR. Fluorescent signals were then recorded for an additional 75 seconds at which point a second addition of DCG-IV (0.2 μM) was made and fluorescent signals were recorded for an additional 65 seconds. Fluorescent signals were measured as the peak height of the response within the sample period. Data was analyzed using Assay Explorer, and EC50 and Emax values (relative to maximum DCG-IV effect) were calculated using a four parameter logistic equation.
A [^35S]-GTPγS binding assay was used to functionally assay mGluR2 receptor activation. The allosteric activator activity of compounds at the human mGluR2 receptor were measured using a [^35S]-GTPγS binding assay with membranes prepared from CHO cells which stably express the human mGluR2. […]

T1 sequence (Q14416 19-819 limits assumed): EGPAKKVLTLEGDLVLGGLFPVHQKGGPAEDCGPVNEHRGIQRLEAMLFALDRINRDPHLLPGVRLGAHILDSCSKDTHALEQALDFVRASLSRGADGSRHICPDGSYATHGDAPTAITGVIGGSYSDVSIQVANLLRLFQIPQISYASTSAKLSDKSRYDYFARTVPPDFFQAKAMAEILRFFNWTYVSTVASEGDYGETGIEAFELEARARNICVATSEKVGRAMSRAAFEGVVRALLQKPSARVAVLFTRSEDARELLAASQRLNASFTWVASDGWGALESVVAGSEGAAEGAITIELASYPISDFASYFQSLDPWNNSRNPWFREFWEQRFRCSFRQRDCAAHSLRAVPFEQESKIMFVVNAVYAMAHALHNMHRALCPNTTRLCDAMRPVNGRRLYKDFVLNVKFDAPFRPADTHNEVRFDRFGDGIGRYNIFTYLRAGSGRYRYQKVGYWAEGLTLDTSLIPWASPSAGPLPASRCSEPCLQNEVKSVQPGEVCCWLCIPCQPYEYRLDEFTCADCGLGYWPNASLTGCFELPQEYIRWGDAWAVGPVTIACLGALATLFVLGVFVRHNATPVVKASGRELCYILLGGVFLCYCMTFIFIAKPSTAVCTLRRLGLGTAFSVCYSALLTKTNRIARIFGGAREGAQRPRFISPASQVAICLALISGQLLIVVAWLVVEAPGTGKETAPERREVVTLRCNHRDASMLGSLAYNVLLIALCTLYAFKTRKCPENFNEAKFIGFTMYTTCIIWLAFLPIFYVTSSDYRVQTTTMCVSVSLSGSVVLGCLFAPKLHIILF

pEC50	Structure (SMILES)
6.17	Cc1nc(-c2cccc(NC=O)c2)cc2c1C(=O)N(CC1CC1)C2 [Compound 20, {3-[2-(cyclopropylmethyl)-4-methyl-3-oxo-2,3-dihydro-1H-pyrrolo[3,4-c]pyridin-6-yl]phenyl}formamide]
6.80	Cc1nc(-c2cccc(N(S(C)(=O)=O)S(C)(=O)=O)c2)cc2c1C(=O)N(Cc1ccc(OC(F)(F)F)cc1)C2 [Compound 9, 6-(3-dimethylsulphanomidephenyl)-4-methyl-2-[4-(trifluoromethoxy)benzyl]-1,2-dihydro-3H-pyrrolo[3,4-c]pyridin-3-one]
5.88	Cc1nc(-c2cccc(NS(C)(=O)=O)c2)cc2c1C(=O)N(Cc1ccc(OC(F)(F)F)cc1)C2 [Compound 13, 6-(3-methylsulphanomidephenyl)-4-methyl-2-[4-(trifluoromethoxy)benzyl]-1,2-dihydro-3H-pyrrolo[3,4-c]pyridin-3-one]
